From patent US8592438B2, “Plant disease control composition” (Sumitomo Chemical Intellectual Property Service, Ltd, priority 2008, dated 2013)

How the values were obtained:
[1] = system: cucumber Gray mold fungus; experiment: Test Example 1: cucumber Gray mold control test, foliar spray on potted cucumber; assay type: in vivo; conditions: spray on cucumber stems and leaves, 6 days at 12° C. humid
Protocol: A plastic pot was stuffed with sand loam, and cucumber was sowed, and grown for 12 days in a greenhouse. A compound (Ia), compound (Ib) and compound (II) were prepared into flowable formulations according to the following preparation method, and the resultant flowable formulations were diluted with water, then, mixed to prepare a treatment solution containing the compound (Ia) and compound (II) of prescribed concentrations, and a treatment solution containing the compound (Ib) and compound (II) of prescribed concentrations. The treatment solutions were sprayed on stems and leaves so as to fully adhere to the leaf surfaces of the cucumber. After spraying, the plant was air-dried, and a PDA medium containing spores of cucumber Gray mold fungus was placed on the cucumber leaf surface. Thereafter, it was left for 6 days at 12° C. under humid condition, then, a control effect thereof was checked.
Further, wettable powders of the compound (Ia), compound (Ib) and compound (II) each were diluted with water to prescribed concentrations to prepare respective treatment solutions, which were subjected to a parallel test.
In checking, evaluation indices described later were used. According to formula 1, the pathogenesis degree was calculated, and based on the pathogenesis degree, a controlling value (%) was calculated using formula 2.
(§1) A compound (Ia), compound (Ib) or compound (II) (10 parts), a mixture (35 parts) of white carbon and polyoxyethylene alkyl ether sulfate ammonium salt (weight ratio 1:1) and water (55 parts) were mixed, and finely ground by a wet grinding method to obtain respective flowable formulations.
• 0: disease spot diameter, 0 mm • 1: disease spot diameter, 1 to 5 mm • 2: disease spot diameter, 5 to 10 mm • 3: disease spot diameter, 10 to 15 mm • 4: disease spot diameter, 15 to 20 mm • 5: disease spot diameter, over 20 mm pathogenesis degree=Σ(evaluation index of checked leaf)×100/(5×number of checked leaves) Formula 1 controlling value (%)=100×(A−B)/A Formula 2 • A: pathogenesis degree of plant in non-treated district • B: pathogenesis degree of plant in treated district

[2] = system: cucumber Gray mold fungus; experiment: Test Example 2: cucumber Gray mold control test, foliar spray on potted cucumber, disease spot diameter indices; assay type: in vivo; conditions: sum over 8 cucumber leaves, index 0 (spot 0 mm) to 5 (over 20 mm), 12° C. humid
Protocol: A plastic pot was stuffed with sand loam, and cucumber was sowed, and grown for 12 days in a greenhouse. A compound (Ia), compound (Ib), compound (III) and compound (IV) were prepared into flowable formulations according to the following preparation method, and the resultant flowable formulations were diluted with water, then, mixed to prepare a treatment solution containing the compound (Ia) and compound (III) of prescribed concentrations, a treatment solution containing the compound (Ib) and compound (III) of prescribed concentrations, a treatment solution containing the compound (Ia) and compound (IV) of prescribed concentrations, and a treatment solution containing the compound (Ib) and compound (IV) of prescribed concentrations. The treatment solutions were sprayed on stems and leaves so as to fully adhere to the leaf surfaces of the cucumber. After spraying, the plant was air-dried, and a PDA medium containing spores of cucumber Gray mold fungus was placed on the cucumber leaf surface. Thereafter, it was left under humid condition at 12° C., then, a control effect thereof was checked.
Further, wettable powders of the compound (Ia), compound (Ib), compound (III) and compound (IV) each were diluted with water to prescribed concentrations to prepare respective treatment solutions, which were subjected to a parallel test.
In checking of the control effect, the disease spot diameter was measured for 8 leaves of cucumber. A case of a disease spot diameter of 0 mm was evaluated as a controlling index of 0, a case of a disease spot diameter of 1 to 5 mm was evaluated as a controlling index of 1, a case of a disease spot diameter of 5 to 10 mm was evaluated as a controlling index of 2, a case of a disease spot diameter of 10 to 15 mm was evaluated as a controlling index of 3, a case of a disease spot diameter of 15 to 20 mm was evaluated as a controlling index of 4, and a case of a disease spot diameter of over 20 mm was evaluated as a controlling index of 5.
as §1, with “(Ib), compound (III)” for “(Ib)”, “(IV)” for “(II)”

[3] = active ingredient concentration 10 ppm
[4] = active ingredient concentration 5 ppm
[5] = active ingredient concentration 2.5 ppm
[6] = active ingredient concentration 20 ppm
[7] = active ingredient concentration 40 ppm

| Structure (SMILES) | controlling value [1, 3] | sum of controlling indices [2, 4] | sum of controlling indices [2, 5] | controlling value [1, 5] | controlling value [1, 6] | sum of controlling indices [2, 3] | sum of controlling indices [2, 6] | controlling value [1, 4] | controlling value [1, 7] | sum of controlling indices [2, 7] |
| --- | --- | --- | --- | --- | --- | --- | --- | --- | --- | --- |
| Cc1cc(C)nc(Nc2ccccc2)n1 [compound (II), 4,6-dimethyl-N-phenyl-2-pyrimidinamine, reference compound] | 30% | – | – | – | – | – | – | – | – | – |
| CC#Cc1cc(C)nc(Nc2ccccc2)n1 [compound (III), 4-methyl-N-phenyl-6-(1-propynyl)-2-pyrimidinamine, reference compound] | – | 10 | – | – | – | – | – | – | – | – |
| Cc1cc(C2CC2)nc(Nc2ccccc2)n1 [compound (IV), 4-cyclopropyl-6-methyl-N-phenyl-2-pyrimidinamine, reference compound] | – | 9 | 24 | – | – | – | – | – | – | – |
| CNC(=O)[C@H](OC)c1ccccc1COc1cc(C)ccc1C [compound (Ia)] | 60% | 25 | 27 | 48% | 68% | 24 | 23 | – | – | – |
| CNC(=O)C(OC)c1ccccc1COc1cc(C)ccc1C (stereo not drawn) [compound (Ib)] | – | 25 | – | – | 60% | 26 | 24 | 48% | 68% | 24 |
